Results published in PMC6657216, “Defining the Contribution of CYP1A1 and CYP1A2 to Drug Metabolism Using Humanized CYP1A1/1A2 and Cyp1a1/Cyp1a2 Knockout Mice” (Drug Metabolism and Disposition, 2019).
“And” between values parts separate entries of the source, which are not always exact repeats. Identical values can stand only once. Like-named read-outs stand apart in the source and are kept apart here. Marks after values point to notes of the source that are not given here.

Experiments:
[1] = Caffeine systemic clearance from published mouse studies; type: in vivo
[2] = for CYP1A2 Contribution: 5 mg/kg PO, This study; for AUCinf(obs) (% mean of C57BL/6J ± %S.D.) / CL/F(obs) (% mean of C57BL/6J ± %S.D.) / Cmax (% mean of C57BL/6J ± %S.D.) / V/F(obs) (% mean of C57BL/6J ± %S.D.) / V/F(obs): 5 mg/kg oral; for V/F(obs): mean ± S.D., n = 4
Protocol: (§2) A separate experimental group consisted of mice with conditionally deleted hepatic P450 oxidoreductase ([Henderson et al., 2003]) [hepatic reductase null (HRN) mice]. Whole blood samples from WT and hCYP1A1/1A2 mice were collected at 12, 24, and 40 minutes and 1, 2, 3, 4, 6, and 8 hours after the administration. Whole blood samples from HRN and Cyp1a1/1a2 KO mice were collected at 12, 24, and 40 minutes and 1, 3, 6, 8, 12, and 24 hours postadministration. The collected whole blood samples (10 μl) were mixed with an equal volume of heparin solution in water (15 U/ml), frozen in liquid nitrogen, and stored at −70°C. […] The supernatant was collected, and the centrifugation step was repeated.
(§3) Pharmacokinetic parameters were calculated using Phoenix WinNonlin version 6.4 (Certara, St. Louis, MO).

CYP1A2 = test system: CYP1A2; design: method as in Culm-Merdek et al., 2005; settings: healthy subjects; interaction with fluvoxamine; ref Culm-Merdek et al., 2005; cited from earlier work
in vivo = settings: whole blood, po, 5 mg/kg
Protocol: as §2, §3

[3] = cited from earlier work
[4] = Microsomal stability in mouse liver microsomes (WT, Cyp1a KO, hCYP1A1/1A2)
Protocol: (§1) The reaction was started by addition of 200 μl of NADPH to the remaining mixture of ramelteon with microsomes, and 100-μl aliquots were taken at 1, 2, 5, 10, 15, 20, and 30 minutes after the reaction start; mixed with an equal volume of ice-cold methanol containing the internal standard; incubated on ice for at least 20 minutes; and centrifuged for 15 minutes at 16,000 rcf and +4°C on Centrifuge 5415 R (Eppendorf, Hamburg, Germany). Control incubations were carried out without the cofactor or microsomes. The concentration of ramelteon in the supernatant was measured by high-performance liquid chromatography–tandem mass spectrometry (MS/MS). Chromatographic separation was performed on a Prodigy Phenyl-3 column (5 μm, 50 × 2.0 mm; Phenomenex) using an injection volume of 10 μl and a run time of 7 minutes. Mobile phase consisted of 0.1% solutions of formic acid in water (solvent A) and acetonitrile (solvent B). For elution, a linear gradient from 20% to 60% of solvent B in 4 minutes was used, followed by 3-minute equilibration at 20% B. The multiple reaction monitoring parameters for ramelteon and tacrine were 260.28, 199.2 (precursor ion) and 204.21, 171.11 (product ion), respectively. The concentrations of ramelteon were calculated from the calibration curve.

[5] = Microsomal stability in pooled human liver microsomes
Protocol: as §1

[6] = HRN (hepatic reductase null), mouse

Q: What does the source list for `Cn1c(=O)c2c(ncn2C)n(C)c1=O` [caffeine]?
A: CYP1A2 Contribution ([1]; C57BL/6J mice, 5 mg/kg PO, against Cyp1a KO clearance, clearance from ref Li et al., 2017): 39%; CYP1A2 Contribution ([1]; C57BL/6J mice, 5 mg/kg PO, against Cyp1a KO clearance, clearance from ref Scheer et al., 2014): 61%; CYP1A2 Contribution ([1]; C57BL/6N mice, 2 mg/kg i.p., calculated against CYP1A2^−/− clearance, clearance from ref Buters et al., 1996): 88%; CYP1A2 Contribution ([1]; CD-1 mice, 20 mg/kg i.p., against Cyp1a KO clearance, clearance from ref Kaplan et al., 1990): 55%; CYP1A2 Contribution ([1]; CD-1 mice, 40 mg/kg i.p., against Cyp1a KO clearance, clearance from ref Kaplan et al., 1990): 25%; CYP1A2 Contribution ([1]; CD-COBS mice, 1 mg/kg i.v., against Cyp1a KO clearance, clearance from ref Walton et al., 2001): 61%; CYP1A2 Contribution ([1]; CYP1A2^−/− mice, 2 mg/kg i.p., clearance from ref Buters et al., 1996): 0%; CYP1A2 Contribution ([1]; Swiss mice, 20 mg/kg PO, against Cyp1a KO clearance, clearance from ref Samojlik et al., 2016): 8%; CYP1A2 Contribution ([1]; Swiss mice, 20 mg/kg i.p., against Cyp1a KO clearance, clearance from ref Samojlik et al., 2016): 28%; CYP1A2 Contribution ([2]; C57BL/6J (WT) mice, against Cyp1a KO clearance): 68%; AUCinf(obs) (% mean of C57BL/6J ± %S.D.) ([2]; C57BL/6J mice): 100 ± 22%; CL/F(obs) (% mean of C57BL/6J ± %S.D.) ([2]; C57BL/6J mice): 100 ± 19%; Cmax (% mean of C57BL/6J ± %S.D.) ([2]; C57BL/6J mice): 100 ± 26%; V/F(obs) (% mean of C57BL/6J ± %S.D.) ([2]; C57BL/6J mice): 100 ± 39%; V/F(obs) ([2]; C57BL/6J mice): 1.253 ± 0.494 L/kg; increase of AUC compared with WT mice ([2]; Cyp1a KO mice): ~3.1 fold; increase of elimination half-life compared with WT ([2]; Cyp1a KO mice): ~2.5 fold; CYP1A2 Contribution ([2]; Cyp1a KO mice): 0%; AUCinf(obs) (% mean of C57BL/6J ± %S.D.) ([2]; Cyp1a KO mice): 309 ± 36%; Cmax (% mean of C57BL/6J ± %S.D.) ([2]; Cyp1a KO mice): 167 ± 20%; V/F(obs) (% mean of C57BL/6J ± %S.D.) ([2]; Cyp1a KO mice): 79 ± 15%; CL/F(obs) (% mean of C57BL/6J ± %S.D.) ([2]; Cyp1a KO mice, 5 mg/kg): 32% and 32 ± 4%; V/F(obs) ([2]; Cyp1a KO mice): 0.992 ± 0.188 L/kg; increase of AUC compared with WT mice ([2]; HRN mice): ~10 fold; increase of elimination half-life compared with WT ([2]; HRN mice): ~8.9 fold; AUCinf(obs) (% mean of C57BL/6J ± %S.D.) ([2]; HRN mice): 1004 ± 45%; Cmax (% mean of C57BL/6J ± %S.D.) ([2]; HRN mice): 157 ± 33%; V/F(obs) (% mean of C57BL/6J ± %S.D.) ([2]; HRN mice): 84 ± 7%; CL/F(obs) (% mean of C57BL/6J ± %S.D.) ([2]; HRN mice, 5 mg/kg): 9.7 ± 0.42%; V/F(obs) ([2]; HRN mice): 1.057 ± 0.082 L/kg; increase of AUC compared with WT mice ([2]; hCYP1A1/1A2 mice): ~1.5 fold; CYP1A2 Contribution ([2]; hCYP1A1/1A2 mice, against Cyp1a KO clearance): 53%; AUCinf(obs) (% mean of C57BL/6J ± %S.D.) ([2]; hCYP1A1/1A2 mice): 147 ± 32%; Cmax (% mean of C57BL/6J ± %S.D.) ([2]; hCYP1A1/1A2 mice): 129 ± 8%; V/F(obs) (% mean of C57BL/6J ± %S.D.) ([2]; hCYP1A1/1A2 mice): 89 ± 4%; CL/F(obs) (% mean of C57BL/6J ± %S.D.) ([2]; hCYP1A1/1A2 mice, 5 mg/kg): 68% and 68 ± 13%; V/F(obs) ([2]; hCYP1A1/1A2 mice): 1.111 ± 0.055 L/kg; increase of elimination half-life compared with WT ([2]; hCYP1A1/1A2 mice, not statistically significant): ~1.4 fold; contribution of CYP1A2 to caffeine metabolism (CYP1A2): 93%; AUC(0-inf) (in vivo; C57BL/6J, mouse): 5700 ± 1260 ng·h/mL; CL/F (in vivo; C57BL/6J, mouse): 15.1 mL/min/kg; Cmax (in vivo; C57BL/6J, mouse): 2380 ± 628 ng/mL; half-life (in vivo; C57BL/6J, mouse): 0.94 ± 0.25 h; AUC(0-inf) (in vivo; Cyp1a KO, mouse): 17700 ± 2070 ng·h/mL; CL/F (in vivo; Cyp1a KO, mouse): 4.77 mL/min/kg; Cmax (in vivo; Cyp1a KO, mouse): 3990 ± 472 ng/mL; half-life (in vivo; Cyp1a KO, mouse): 2.39 ± 0.2 h; AUC(0-inf) (in vivo; [6]): 57300 ng·h/mL; CL/F (in vivo; [6]): 1.45 mL/min/kg; Cmax (in vivo; [6]): 3740 ± 794 ng/mL; half-life (in vivo; [6]): 8.4 ± 0.8 h; AUC(0-inf) (in vivo; hCYP1A1/1A2, mouse): 8400 ± 1800 ng·h/mL; CL/F (in vivo; hCYP1A1/1A2, mouse): 10.2 mL/min/kg; Cmax (in vivo; hCYP1A1/1A2, mouse): 3080 ± 194 ng/mL; half-life (in vivo; hCYP1A1/1A2, mouse): 1.3 ± 0.33 h; Clearance ([3]; C57BL/6J mice, 5 mg/kg PO, calculated from the mean pharmacokinetic profile in Fig. 2 of the publication, ref Li et al., 2017): 472^a ml/(h*kg); Clearance ([3]; C57BL/6J mice, 5 mg/kg PO, ref Scheer et al., 2014): 726 mL/h/kg; Clearance ([3]; C57BL/6N mice, 2 mg/kg i.p., ref Buters et al., 1996): 2268 mL/h/kg; Clearance ([3]; CD-1 mice, 20 mg/kg i.p., ref Kaplan et al., 1990): 640 mL/h/kg; Clearance ([3]; CD-1 mice, 40 mg/kg i.p., ref Kaplan et al., 1990): 380 mL/h/kg; Clearance ([3]; CD-COBS mice, 1 mg/kg i.v., ref Walton et al., 2001): 732 mL/h/kg; Clearance ([3]; Swiss mice, 20 mg/kg PO, calculated by dividing dose by AUCinf, ref Samojlik et al., 2016): 311^b ml/(h*kg); Clearance ([3]; Swiss mice, 20 mg/kg i.p., calculated by dividing dose by AUCinf, ref Samojlik et al., 2016): 398^b ml/(h*kg)

Q: Which “in vitro clearance relative to WT” value ([4]; Cyp1a KO mouse liver microsomes) does the source give for `CCC(=O)NCC[C@@H]1CCc2ccc3c(c21)CCO3` [ramelteon] here?
A: ~83%

Q: What about the “contribution of mouse Cyp1a2 to clearance” value ([4]; WT liver microsomes) of the same compound?
A: 17%

Q: What about the “fraction metabolized by Cyp1a2” value ([4]; WT mice liver microsomes, eqs. 15 and 16) of the same compound?
A: ~0.17

Q: And the “fraction metabolized by CYP1A2” value ([4]; hCYP1A1/1A2 mice liver microsomes, eqs. 15 and 16)?
A: 0.56

Q: What about the “in vitro clearance relative to WT” value ([4]; hCYP1A1/1A2 mouse liver microsomes) of the same compound?
A: ~190%

Q: And the “contribution of CYP1A2 to clearance” value ([4]; liver microsomes of hCYP1A1/1A2 mice)?
A: 56%

Q: What about the “in vitro clearance relative to WT” value [5] of the same compound?
A: ~70%
